# Measurements from patent publication US20070142389A1, “PIPERIDINE DERIVATIVES” (PFIZER INC., priority 2005, published 2007).
# Like-named read-outs stand apart in the source and are kept apart here.
# Columns and labels:
# [1] = molecular target: T1, human norepinephrine transporter (Homo sapiens, UniProt P23975); experiment: hNET Receptor Binding ([125I]-RTI-55 displacement, HEK-293 membranes)
# T1 construct: expressed in transfected cells; host or cells: HEK-293
# Experimental: (§1) Cell pastes of HEK-293 cells transfected with a human norepinephrine transporter cDNA were prepared. The cell pastes were resuspended in 400 to 700 mL of Krebs-HEPES assay buffer (25 mM HEPES, 122 mM NaCl, 3 mM KCl, 1.2 mM MgSO4, 1.3 mM CaCl2, and 11 mM glucose, pH 7.4) with a Polytron homogenizer at setting 7 for 30 seconds. Aliquots of membranes (5 mg/mL protein) were stored in liquid nitrogen until used.
# The binding assay was set up in Beckman deep-well polypropylene plates with a total volume of 250 μL containing: compound of one of the Examples (10^−5M to 10^−12M), cell membranes, and 50 pM [^125I]-RTI-55 (Perkin Elmer, NEX-272; specific activity 2200 Ci/mmol). The reaction was incubated by gentle agitation for 90 minutes at room temperature and was terminated by filtration through Whatman GF/C filter plates using a Brandel 96-well plate harvester. Scintillation fluid (100 μL) was added to each well, and bound [^125I]-RTI-55 was determined using a Wallac Trilux Beta Plate Counter. Test compounds were run in duplicate, and specific binding was defined as the difference between binding in the presence and absence of 10 μM desipramine.
# (§2) Excel and GraphPad Prism software were used for data calculation and analysis. IC50 values were converted to Ki values using the Cheng-Prusoff equation.
# [2] = molecular target: T2, human serotonin transporter (Homo sapiens, UniProt P31645); experiment: hSERT Receptor Binding ([125I]-RTI-55 displacement, HEK-293 membranes)
# T2 construct: expressed in transfected cells; host or cells: HEK-293
# T2 sequence (P31645 whole entry): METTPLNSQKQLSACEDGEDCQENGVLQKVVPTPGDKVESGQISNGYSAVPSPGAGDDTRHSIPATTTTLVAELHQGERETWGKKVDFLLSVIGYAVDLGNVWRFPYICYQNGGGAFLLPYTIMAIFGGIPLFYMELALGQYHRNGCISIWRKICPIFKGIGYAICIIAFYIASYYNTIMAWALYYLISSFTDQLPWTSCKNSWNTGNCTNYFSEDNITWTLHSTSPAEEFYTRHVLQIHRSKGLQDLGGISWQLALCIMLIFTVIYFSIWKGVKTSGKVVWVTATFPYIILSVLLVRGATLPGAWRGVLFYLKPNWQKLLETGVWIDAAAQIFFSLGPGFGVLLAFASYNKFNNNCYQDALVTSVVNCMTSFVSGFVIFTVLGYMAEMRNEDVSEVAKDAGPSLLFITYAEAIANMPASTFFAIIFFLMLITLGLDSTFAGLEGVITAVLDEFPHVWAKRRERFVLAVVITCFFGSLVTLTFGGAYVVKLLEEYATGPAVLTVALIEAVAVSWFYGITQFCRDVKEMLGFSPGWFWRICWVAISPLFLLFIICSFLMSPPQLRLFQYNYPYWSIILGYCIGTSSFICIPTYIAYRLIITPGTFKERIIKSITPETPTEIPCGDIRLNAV
# Experimental: as §1, with “serotonin” for “norepinephrine”, “Setting” for “setting”, “(about 2.5” for “(5”
# Assays were set up in FlashPlates pre-coated with 0.1 % PEI in a total volume of 250 μL containing: compound of one of the Examples (10^−5M to 10^−12M), cell membanes, and 50 pM [^125l]-RTI-55 (Perkin Elmer, NEX-272; specific activity 2200 Ci/mmol). The reaction was incubated and gently agitated for 90 minutes at room temperature, and terminated by removal of assay volume. Plates were covered, and bound [^125I]-RTI-55 was determined using a Wallac Trilux Beta Plate Counter. Test compounds were run in duplicate, and specific binding was defined as the difference between binding in the presence and absence of 10 μM citalopram.
# as §2
# [3] = hNET, HEK-293 cell membranes, 50 pM [125I]-RTI-55, Ki from IC50 by Cheng-Prusoff, read-out: NET Ki
# [4] = hSERT, HEK-293 cell membranes, 50 pM [125I]-RTI-55, Ki from IC50 by Cheng-Prusoff, read-out: SERT Ki
# T1 sequence (P23975 whole entry): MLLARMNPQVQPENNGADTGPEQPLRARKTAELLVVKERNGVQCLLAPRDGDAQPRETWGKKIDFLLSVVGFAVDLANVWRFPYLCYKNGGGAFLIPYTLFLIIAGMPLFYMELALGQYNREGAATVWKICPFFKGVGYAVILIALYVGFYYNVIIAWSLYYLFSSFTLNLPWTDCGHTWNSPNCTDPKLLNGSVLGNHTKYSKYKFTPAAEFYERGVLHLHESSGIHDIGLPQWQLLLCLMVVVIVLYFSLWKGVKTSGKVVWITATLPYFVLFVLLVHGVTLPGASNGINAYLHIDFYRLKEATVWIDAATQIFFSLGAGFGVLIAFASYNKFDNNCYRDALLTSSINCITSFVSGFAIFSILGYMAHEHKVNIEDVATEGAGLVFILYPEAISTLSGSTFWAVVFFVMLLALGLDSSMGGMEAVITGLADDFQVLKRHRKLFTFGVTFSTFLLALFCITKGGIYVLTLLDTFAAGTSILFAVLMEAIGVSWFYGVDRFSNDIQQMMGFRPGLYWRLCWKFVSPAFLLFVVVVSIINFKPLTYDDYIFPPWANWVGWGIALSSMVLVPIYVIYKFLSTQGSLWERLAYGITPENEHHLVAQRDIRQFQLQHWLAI
"Ki [1, 3] [nM]","Ki [2, 4] [nM]",Compound,Ki [1] [nM],Ki [2] [nM]
–,–,"CCOc1ncccc1OC[C@@H]1CNCC[C@H]1c1ccc(F)cc1 (racemic) [Example 58, (±)-trans-2-Ethoxy-3-[4-(4-fluoro-phenyl)-piperidin-3-ylmethoxy]-pyridine]",6.25,5.97
4.38,10.7,"CCOc1ncccc1OC[C@@H]1CNCC[C@H]1c1cccc(F)c1 (racemic) [Example 59, (±)-trans-2-Ethoxy-3-[4-(3-fluoro-phenyl)-piperidin-3-ylmethoxy]-pyridine]",–,–
7.48,23.8,"CCCCc1ncccc1OC[C@@H]1CNCC[C@H]1c1ccccc1 (racemic) [Example 61, (±)-trans-2-Butyl-3-(4-phenyl-piperidin-3-ylmethoxy)-pyridine]",–,–
46.6,59.2,"CC(C)Cc1ncccc1OC[C@@H]1CNCC[C@H]1c1ccccc1 (racemic) [Example 62, (±)-trans-2-lsobutyl-3-(4-phenyl-piperidin-3-ylmethoxy)-pyridine]",–,–
51.5,1050,"c1ccc(-c2ccccc2OC[C@@H]2CNCC[C@H]2c2ccccc2)cc1 (relative stereo) [Example 47, trans-3-(Biphenyl-2-yloxymethyl)-4-phenyl-piperidine]",–,–
2.1,–,"CCOc1ccccc1OC[C@@H]1CNCC[C@H]1c1ccccc1 (relative stereo) [Example 48, trans-3-(2-Ethoxy-phenoxymethyl)-4-phenyl-piperidine]",–,–
19.5,83.5,"CC(C)c1ccccc1OC[C@@H]1CNCC[C@H]1c1ccccc1 (relative stereo) [Example 49, trans-3-(2-lsopropyl-phenoxymethyl)-4-phenyl-piperidine]",–,–
16,33,"CCCc1ccccc1OC[C@@H]1CNCC[C@H]1c1ccccc1 (relative stereo) [Example 50, trans-4-Phenyl-3-(2-propyl-phenoxymethyl)-piperidine]",–,–
75,174,"c1ccc([C@@H]2CCNC[C@H]2COc2ccccc2C2CCCCC2)cc1 (relative stereo) [Example 51, trans-3-(2-Cyclohexyl-phenoxymethyl)-4-phenyl-piperidine]",–,–
35,96,"CCOc1ccccc1OC[C@@H]1CNCC[C@@H]1c1ccccc1 (relative stereo) [Example 52, cis-3-(2-Ethoxy-phenoxymethyl)-4-phenyl-piperidine]",–,–
138,267,"CCCc1ccccc1OC[C@@H]1CNCC[C@@H]1c1ccccc1 (relative stereo) [Example 53, cis-4-Phenyl-3-(2-propyl-phenoxymethyl)-piperidine]",–,–
36.5,208,"CC(C)c1ccccc1OC[C@@H]1CNCC[C@@H]1c1ccccc1 (relative stereo) [Example 54, cis-3-(2-lsopropyl-phenoxymethyl)-4-phenyl-piperidine]",–,–
215,1050,"c1ccc(-c2ccccc2OC[C@@H]2CNCC[C@@H]2c2ccccc2)cc1 (relative stereo) [Example 55, cis-3-(Biphenyl-2-yloxymethyl)-4-phenyl-piperidine]",–,–
317,542,"c1ccc([C@H]2CCNC[C@H]2COc2ccccc2C2CCCCC2)cc1 (relative stereo) [Example 56, cis-3-(2-Cyclohexyl-phenoxymethyl)-4-phenyl-piperidine]",–,–
–,–,"CCOc1ncccc1OC[C@@H]1CNCC[C@@H]1c1ccc(F)cc1 (single isomer, unassigned) [Example 57, (+)-cis-2-Ethoxy-3-[4-(4-fluoro-phenyl)-piperidin-3-ylmethoxy]-pyridine]",193,34.8
1260,18.8,"CCOc1ccccc1OC[C@H]1CNCC[C@@H]1c1ccccc1 [Example 3, (3R,4S)-3-(2-Ethoxy-phenoxymethyl)-4-phenyl-piperidine]",–,–
1.75,–,"CCOc1ccccc1OC[C@@H]1CNCC[C@H]1c1ccccc1 [Example 18, (3S,4R)-3-(2-Ethoxy-phenoxymethyl)-4-phenyl-piperidine]",–,–
